The record followed here is ChEMBL document CHEMBL5543067, “Advances in nitric oxide regulators for the treatment of ischemic stroke” (Eur J Med Chem, 2023).

For series [1], the target named is T1, Nitric oxide synthase 3 (Homo sapiens, UniProt P29474).
T1 sequence (P29474 whole entry): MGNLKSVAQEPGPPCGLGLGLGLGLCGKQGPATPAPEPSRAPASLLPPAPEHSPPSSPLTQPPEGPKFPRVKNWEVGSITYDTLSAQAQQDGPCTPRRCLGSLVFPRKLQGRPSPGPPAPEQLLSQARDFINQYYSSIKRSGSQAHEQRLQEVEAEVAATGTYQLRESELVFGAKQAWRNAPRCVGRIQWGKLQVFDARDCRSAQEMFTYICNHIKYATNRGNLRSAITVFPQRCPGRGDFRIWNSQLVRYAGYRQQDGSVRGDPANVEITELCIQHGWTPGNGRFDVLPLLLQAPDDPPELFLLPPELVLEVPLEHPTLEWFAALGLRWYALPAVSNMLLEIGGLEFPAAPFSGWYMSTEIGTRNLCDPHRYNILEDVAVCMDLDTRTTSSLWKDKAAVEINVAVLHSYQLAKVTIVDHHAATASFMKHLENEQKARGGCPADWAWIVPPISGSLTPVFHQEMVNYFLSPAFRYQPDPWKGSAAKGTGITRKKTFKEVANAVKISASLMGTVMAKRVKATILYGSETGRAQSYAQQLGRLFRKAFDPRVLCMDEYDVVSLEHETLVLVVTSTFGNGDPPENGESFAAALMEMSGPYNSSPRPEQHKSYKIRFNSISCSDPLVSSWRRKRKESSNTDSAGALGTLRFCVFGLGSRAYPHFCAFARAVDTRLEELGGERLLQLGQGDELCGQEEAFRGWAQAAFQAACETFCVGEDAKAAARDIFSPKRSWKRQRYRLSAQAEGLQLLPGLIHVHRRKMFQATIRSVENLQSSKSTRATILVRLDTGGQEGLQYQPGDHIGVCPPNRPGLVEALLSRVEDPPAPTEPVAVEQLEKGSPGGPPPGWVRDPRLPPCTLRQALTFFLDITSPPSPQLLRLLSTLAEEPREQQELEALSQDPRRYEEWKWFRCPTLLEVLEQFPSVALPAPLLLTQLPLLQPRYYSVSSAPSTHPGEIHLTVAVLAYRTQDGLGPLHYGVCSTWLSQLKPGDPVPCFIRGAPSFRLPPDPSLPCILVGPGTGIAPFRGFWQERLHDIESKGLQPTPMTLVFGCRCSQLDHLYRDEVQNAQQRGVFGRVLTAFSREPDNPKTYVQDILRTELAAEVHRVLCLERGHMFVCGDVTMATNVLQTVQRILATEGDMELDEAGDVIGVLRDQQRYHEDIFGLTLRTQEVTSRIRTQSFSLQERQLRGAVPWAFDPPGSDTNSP
The experiment in a line: Inhibition of human Endothelial cells eNOS. Format: cell-based, Endothelial cell.

For series [2], the target named is T2, Nitric oxide synthase, inducible (Mus musculus, UniProt P29477).
T2 sequence (P29477 whole entry): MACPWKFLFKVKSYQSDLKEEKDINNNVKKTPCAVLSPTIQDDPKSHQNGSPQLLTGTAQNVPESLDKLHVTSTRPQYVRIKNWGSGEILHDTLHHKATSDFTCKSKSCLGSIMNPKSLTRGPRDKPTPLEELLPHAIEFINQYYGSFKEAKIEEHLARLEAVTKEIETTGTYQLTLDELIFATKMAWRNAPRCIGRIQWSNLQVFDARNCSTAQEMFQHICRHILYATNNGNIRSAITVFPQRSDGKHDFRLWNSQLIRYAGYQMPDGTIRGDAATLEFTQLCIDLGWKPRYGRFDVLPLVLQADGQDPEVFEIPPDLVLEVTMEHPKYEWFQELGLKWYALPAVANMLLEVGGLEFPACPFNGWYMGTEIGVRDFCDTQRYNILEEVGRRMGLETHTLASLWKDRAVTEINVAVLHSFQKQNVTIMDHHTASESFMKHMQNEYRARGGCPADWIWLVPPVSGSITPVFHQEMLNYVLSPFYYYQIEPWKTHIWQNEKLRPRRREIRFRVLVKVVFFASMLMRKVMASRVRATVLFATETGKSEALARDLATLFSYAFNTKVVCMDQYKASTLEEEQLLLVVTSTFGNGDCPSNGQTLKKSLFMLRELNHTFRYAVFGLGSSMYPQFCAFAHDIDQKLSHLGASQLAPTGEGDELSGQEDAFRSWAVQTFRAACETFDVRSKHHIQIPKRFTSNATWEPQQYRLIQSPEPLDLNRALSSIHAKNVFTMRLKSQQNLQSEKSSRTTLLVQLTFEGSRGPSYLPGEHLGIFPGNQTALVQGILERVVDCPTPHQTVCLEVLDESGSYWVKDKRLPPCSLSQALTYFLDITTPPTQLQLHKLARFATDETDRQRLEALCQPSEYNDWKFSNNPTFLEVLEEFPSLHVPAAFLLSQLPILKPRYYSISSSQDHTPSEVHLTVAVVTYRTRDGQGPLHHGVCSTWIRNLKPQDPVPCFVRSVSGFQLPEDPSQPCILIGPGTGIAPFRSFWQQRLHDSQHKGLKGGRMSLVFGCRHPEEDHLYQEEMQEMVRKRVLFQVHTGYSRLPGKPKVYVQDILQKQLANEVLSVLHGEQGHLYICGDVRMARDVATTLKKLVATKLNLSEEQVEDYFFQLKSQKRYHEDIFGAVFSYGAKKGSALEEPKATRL
The experiment in a line: Inhibition of mouse iNOS in RAW264.7 cells. Format: cell-based.

In series [3] the target is Nitric oxide synthase 1 (Rattus norvegicus, UniProt P29476). The experiment in a line: Inhibition of rat cerebellum nNOS. Format: tissue-based.
Chain of Nitric oxide synthase 1 (Rattus norvegicus, UniProt P29476) (P29476 whole entry): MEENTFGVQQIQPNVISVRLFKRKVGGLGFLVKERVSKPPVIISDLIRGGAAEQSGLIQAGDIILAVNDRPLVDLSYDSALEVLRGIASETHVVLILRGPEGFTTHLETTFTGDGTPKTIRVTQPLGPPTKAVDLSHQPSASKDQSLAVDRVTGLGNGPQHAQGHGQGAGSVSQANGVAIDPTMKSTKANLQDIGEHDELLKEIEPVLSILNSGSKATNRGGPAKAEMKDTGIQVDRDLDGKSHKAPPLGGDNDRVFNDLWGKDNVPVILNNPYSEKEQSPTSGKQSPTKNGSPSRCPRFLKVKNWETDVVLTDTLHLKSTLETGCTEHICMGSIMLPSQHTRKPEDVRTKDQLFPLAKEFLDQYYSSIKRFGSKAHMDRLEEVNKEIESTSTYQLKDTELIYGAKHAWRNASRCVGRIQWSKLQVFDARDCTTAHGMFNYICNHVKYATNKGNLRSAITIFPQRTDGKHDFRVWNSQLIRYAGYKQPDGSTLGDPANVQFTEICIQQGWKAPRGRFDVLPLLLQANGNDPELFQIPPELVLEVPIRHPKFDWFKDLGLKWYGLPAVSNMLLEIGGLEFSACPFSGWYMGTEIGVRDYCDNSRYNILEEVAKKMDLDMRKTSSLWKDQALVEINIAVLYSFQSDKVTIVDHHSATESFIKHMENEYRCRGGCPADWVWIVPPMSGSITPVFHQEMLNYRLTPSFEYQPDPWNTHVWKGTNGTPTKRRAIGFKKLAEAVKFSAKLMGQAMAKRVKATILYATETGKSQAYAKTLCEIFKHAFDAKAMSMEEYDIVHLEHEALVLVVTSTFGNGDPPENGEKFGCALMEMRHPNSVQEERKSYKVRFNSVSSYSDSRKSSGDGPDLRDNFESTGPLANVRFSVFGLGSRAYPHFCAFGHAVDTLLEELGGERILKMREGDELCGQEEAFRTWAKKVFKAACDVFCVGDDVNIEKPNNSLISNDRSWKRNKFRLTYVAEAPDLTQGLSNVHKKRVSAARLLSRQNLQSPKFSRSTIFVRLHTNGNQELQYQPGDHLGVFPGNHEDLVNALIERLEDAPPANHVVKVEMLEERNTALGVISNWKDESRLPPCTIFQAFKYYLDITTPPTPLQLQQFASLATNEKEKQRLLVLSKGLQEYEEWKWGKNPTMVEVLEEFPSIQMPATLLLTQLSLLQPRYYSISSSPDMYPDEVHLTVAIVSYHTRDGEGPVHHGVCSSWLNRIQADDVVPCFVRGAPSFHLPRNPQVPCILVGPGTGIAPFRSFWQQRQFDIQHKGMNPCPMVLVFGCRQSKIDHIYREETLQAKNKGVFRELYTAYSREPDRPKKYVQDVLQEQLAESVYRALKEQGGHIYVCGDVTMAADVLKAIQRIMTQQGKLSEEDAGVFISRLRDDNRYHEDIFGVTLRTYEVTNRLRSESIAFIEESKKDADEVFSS
The nature of series [4]: Neuroprotective activity in rat hippocampal neuron cells assessed as NMDA-induced cGMP production. The format is functional, cell-based. Particulars: Hippocampal neurone.
In series [5] the test system is Platelet. Briefly: Inhibition of ADP-induced platelet aggregation (unknown origin). The format is functional, cell-based.
A short description of series [6]: Water solubility at pH 7.4. The format is physicochemical.
Series [7] concerns Platelet. The experiment in a line: Inhibition of ADP-induced platelet aggregation in New Zealand White rabbit. Particulars: Oryctolagus cuniculus. The format is functional, cell-based.
Series [8] has as its system Platelet. Briefly: Inhibition of AA-induced platelet aggregation in New Zealand White rabbit. The format is functional, cell-based. Particulars: Oryctolagus cuniculus.
A short description of series [9]: Inhibition of NOS (unknown origin). On the set-up: species or system Homo sapiens.
Series [10] can be described thus: Permeability of the compound across blood brain barrier at pH 7.4 at 12.5 uM incubated for 4 hrs by PAMPA assay. Format: ADME. The conditions noted are these: read-out: permeability. (In general: PAMPA measures passive passage across an artificial lipid membrane.)
Series [11] deals with T3, Nitric oxide synthase 1 (Homo sapiens, UniProt P29475). The experiment in a line: Binding affinity to GST-tagged nNOS (unknown origin) expressed in Escherichia coli BL21 (DE3) assessed as change in enthalpy.
T3 sequence (P29475 whole entry): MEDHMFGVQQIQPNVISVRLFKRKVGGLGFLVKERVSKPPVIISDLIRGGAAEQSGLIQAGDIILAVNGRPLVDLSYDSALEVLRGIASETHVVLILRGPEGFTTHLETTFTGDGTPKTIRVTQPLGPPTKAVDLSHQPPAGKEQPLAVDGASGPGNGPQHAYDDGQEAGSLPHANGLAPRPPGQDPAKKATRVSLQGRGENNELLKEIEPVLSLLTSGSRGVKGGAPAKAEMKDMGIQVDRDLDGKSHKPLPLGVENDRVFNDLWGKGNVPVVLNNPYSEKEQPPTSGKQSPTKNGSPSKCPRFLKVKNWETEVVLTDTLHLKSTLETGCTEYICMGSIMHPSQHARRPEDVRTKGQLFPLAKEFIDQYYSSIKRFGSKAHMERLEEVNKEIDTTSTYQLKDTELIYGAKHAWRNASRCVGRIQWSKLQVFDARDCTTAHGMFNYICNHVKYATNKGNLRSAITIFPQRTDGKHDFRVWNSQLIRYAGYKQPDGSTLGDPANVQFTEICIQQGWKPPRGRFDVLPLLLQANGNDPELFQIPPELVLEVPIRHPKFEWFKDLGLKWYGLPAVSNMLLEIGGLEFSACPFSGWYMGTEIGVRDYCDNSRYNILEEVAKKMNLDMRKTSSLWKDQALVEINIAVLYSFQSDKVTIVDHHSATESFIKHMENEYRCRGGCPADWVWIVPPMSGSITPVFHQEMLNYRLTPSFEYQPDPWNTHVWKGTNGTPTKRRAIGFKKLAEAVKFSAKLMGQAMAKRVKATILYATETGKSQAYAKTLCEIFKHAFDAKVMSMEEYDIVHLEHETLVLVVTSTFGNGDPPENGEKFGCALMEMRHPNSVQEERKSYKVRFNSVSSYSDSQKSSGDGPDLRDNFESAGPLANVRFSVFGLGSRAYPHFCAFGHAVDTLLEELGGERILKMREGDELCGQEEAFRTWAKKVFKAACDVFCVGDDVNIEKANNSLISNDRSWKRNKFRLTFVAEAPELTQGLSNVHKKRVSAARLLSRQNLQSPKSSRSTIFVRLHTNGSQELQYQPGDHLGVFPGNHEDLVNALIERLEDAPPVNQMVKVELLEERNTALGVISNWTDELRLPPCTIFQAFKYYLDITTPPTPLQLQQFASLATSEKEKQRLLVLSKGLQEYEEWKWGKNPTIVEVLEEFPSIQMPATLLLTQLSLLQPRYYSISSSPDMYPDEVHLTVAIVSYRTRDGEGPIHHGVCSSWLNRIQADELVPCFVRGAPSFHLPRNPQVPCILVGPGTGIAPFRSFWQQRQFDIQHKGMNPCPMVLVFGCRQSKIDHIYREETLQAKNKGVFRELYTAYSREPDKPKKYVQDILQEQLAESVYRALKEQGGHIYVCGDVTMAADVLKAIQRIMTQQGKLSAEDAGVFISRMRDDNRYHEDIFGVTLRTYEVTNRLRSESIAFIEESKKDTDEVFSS
The target in series [12] is T1, Nitric oxide synthase 3. The experiment in a line: Binding affinity to eNOS (unknown origin) assessed as inhibition constant.
Series [13] addresses T3, Nitric oxide synthase 1. The experiment in a line: Binding affinity to nNOS (unknown origin) assessed as inhibition constant.
The target of series [14] is Nitric oxide synthase, inducible (Homo sapiens, UniProt P35228). Briefly: Binding affinity to iNOS (unknown origin) assessed as inhibition constant.
The target of series [15] is Nitric oxide synthase 1 (Mus musculus, UniProt Q9Z0J4). Briefly: Inhibition of mouse nNOS.
Chain of Nitric oxide synthase 1 (Mus musculus, UniProt Q9Z0J4) (Q9Z0J4 whole entry): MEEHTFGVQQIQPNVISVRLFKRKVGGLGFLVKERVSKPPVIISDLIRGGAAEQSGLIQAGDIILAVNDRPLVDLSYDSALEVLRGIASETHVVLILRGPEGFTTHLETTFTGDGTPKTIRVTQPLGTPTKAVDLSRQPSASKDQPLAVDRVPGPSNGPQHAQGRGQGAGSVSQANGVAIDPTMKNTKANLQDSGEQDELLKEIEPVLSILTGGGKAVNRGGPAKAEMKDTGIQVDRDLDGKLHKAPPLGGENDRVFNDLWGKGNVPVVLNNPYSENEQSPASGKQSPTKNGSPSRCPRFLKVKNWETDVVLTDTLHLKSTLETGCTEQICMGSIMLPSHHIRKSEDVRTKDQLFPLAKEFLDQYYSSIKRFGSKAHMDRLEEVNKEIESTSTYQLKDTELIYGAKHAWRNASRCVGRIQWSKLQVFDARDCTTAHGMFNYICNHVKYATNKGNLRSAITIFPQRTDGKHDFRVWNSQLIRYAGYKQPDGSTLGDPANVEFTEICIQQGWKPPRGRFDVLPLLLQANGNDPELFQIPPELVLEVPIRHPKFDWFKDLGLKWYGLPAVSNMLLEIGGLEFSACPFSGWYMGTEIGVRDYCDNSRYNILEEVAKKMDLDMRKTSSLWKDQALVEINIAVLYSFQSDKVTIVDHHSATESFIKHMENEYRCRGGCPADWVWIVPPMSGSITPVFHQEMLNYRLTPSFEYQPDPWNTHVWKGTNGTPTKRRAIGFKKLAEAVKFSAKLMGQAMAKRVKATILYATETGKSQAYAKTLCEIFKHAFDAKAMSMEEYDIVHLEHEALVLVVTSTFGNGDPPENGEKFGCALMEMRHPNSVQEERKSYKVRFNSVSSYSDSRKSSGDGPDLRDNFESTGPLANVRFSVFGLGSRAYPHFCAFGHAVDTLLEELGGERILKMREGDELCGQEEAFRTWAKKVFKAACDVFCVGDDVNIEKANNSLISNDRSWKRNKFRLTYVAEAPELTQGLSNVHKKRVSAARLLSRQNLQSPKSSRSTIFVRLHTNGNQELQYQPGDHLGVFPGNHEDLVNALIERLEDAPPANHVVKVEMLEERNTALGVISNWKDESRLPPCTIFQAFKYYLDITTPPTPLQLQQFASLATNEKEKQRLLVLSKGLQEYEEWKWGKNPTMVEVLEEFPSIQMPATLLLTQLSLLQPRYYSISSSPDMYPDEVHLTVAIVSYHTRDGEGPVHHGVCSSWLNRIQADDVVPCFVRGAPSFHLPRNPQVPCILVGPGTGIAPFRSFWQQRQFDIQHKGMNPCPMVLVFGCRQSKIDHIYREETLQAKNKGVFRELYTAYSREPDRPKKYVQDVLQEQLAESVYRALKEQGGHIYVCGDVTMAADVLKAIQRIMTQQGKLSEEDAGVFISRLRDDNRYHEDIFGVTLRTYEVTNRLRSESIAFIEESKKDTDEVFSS
Series [16] deals with T4, Nitric oxide synthase 3 (Bos taurus, UniProt P29473).
T4 sequence (P29473 whole entry): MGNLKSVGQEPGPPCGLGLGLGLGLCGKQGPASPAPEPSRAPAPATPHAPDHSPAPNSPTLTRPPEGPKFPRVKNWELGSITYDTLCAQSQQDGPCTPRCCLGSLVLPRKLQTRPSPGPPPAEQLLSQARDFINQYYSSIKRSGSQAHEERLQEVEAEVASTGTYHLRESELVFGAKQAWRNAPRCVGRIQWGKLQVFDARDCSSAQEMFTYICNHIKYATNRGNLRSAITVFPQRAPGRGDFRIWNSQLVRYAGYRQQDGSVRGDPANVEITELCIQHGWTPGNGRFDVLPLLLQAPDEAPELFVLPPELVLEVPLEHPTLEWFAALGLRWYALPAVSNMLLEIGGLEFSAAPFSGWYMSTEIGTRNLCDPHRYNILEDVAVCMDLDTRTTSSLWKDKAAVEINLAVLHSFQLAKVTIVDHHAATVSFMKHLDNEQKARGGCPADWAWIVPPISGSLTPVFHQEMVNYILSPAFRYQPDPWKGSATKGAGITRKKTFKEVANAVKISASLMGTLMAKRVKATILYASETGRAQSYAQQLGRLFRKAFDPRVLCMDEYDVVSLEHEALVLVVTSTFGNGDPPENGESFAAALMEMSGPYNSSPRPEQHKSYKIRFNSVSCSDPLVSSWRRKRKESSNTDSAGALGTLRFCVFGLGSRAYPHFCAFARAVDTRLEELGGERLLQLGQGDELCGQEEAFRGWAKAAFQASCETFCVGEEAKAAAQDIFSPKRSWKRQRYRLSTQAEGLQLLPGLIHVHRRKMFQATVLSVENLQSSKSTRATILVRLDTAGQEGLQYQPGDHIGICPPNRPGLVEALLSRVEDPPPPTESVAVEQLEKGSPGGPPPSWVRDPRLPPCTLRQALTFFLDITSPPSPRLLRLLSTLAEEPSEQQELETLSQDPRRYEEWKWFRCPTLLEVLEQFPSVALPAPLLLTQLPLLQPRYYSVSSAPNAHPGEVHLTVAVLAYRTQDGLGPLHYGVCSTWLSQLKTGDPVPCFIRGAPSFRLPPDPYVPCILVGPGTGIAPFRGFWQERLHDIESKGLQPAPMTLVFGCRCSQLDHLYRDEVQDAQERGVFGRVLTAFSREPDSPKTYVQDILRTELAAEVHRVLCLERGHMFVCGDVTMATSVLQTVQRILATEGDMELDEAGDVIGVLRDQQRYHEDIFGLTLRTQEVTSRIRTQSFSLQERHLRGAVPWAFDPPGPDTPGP
The experiment in a line: Inhibition of bovine eNOS.

Series [17] addresses Nitric oxide synthase, inducible (Rattus norvegicus, UniProt Q06518). Briefly: Inhibition of rat iNOS.

Converted amounts (≈) assume the structure as drawn.

For `N=C(Nc1ccc2c(c1)CNCC2)c1cccs1`, the IC50 (commonly the concentration needed to halve the response being measured) came out at 10 µM at Nitric oxide synthase 3 [1], 5.5 µM in series [2] and 0.05 µM at Nitric oxide synthase 1 [3].

On to `Oc1c(Cl)cc(Cl)cc1CNc1ccc2nn[nH]c2c1`, for which the IC50 in series [4] came out at 2.7 µM.

In the series with Platelet [5], `CCCCC(OC(C)=O)c1ccccc1C(=O)O[C@H]1CO[C@H]2[C@@H]1OC[C@H]2OC(=O)NCCO[N+](=O)[O-]` (stereo partly specified) showed an IC50 of 0.44 µM. The amount in solution in series [6] (solubility) came to 2.13 µM (≈ 1.09 µg/mL).

As to `Cc1nc(C)c(COC(=O)c2cccc(OCCCCO[N+](=O)[O-])c2)nc1C`, the IC50 in the series with Platelet [7] was determined as 0.734 µM; with Platelet [8], 0.556 µM.

In the case of `CN1CCc2ccc(NC(=N)c3cccs3)cc2C1`, the IC50 on Nitric oxide synthase 3 [1] amounted to 24 µM; in series [2], 5 µM; on Nitric oxide synthase 1 [3], 0.08 µM.

In turn, `COC(=O)[C@@H](N)CCCNC(=N)N[N+](=O)[O-]` [L-NAME] registered an IC50 in series [9] of 70 µM.

The compound `O=[N+]([O-])c1cccc2cn[nH]c12` [7-NITROINDAZOLE] displayed an IC50 in series [9] of 0.71 µM.

As to `COC(=O)C[C@H](NC(=O)[C@@H](C)NCCC1CCCCC1)C(=O)N[C@H](C)C(=O)N[C@@H](C(=O)O)C(C)C`, the Papp at 4 h, 12.5 µM in [10] stood at 6.07 ×10⁻⁶ cm/s. For the same compound, the deltaH on Nitric oxide synthase 1 [11] was -1.67 kcal/mol.

`N=C(N)NN` [PIMAGEDINE]: the Ki – broadly, the equilibrium dissociation constant of an inhibitor or competing ligand from its target – on Nitric oxide synthase 3 [12] was over 8000 µM; on Nitric oxide synthase 1 [13], 830 µM; in series [14], 16 µM.

As to `FC(F)(F)c1ccccc1-n1ccnc1`, the IC50 against Nitric oxide synthase 1 [15] is 28.2 µM; on Nitric oxide synthase 3 [16], 1060 µM; in series [17], 27 µM.
